# Experimental data: patent US6121252A, “Phosphinic acid derivatives” (priority 1998, dated 2000)
# Where two headings read alike, the source gives them in different places.
# Columns and labels:
# mice = assay: In vivo toxicity of NAALADase inhibitors (5-day survival); conditions: 1 to 500 mg/kg
# Excerpt: The mice were subsequently observed two times per day for 5 consecutive days. The survival rate at each dose level is provided below in TABLE II.
# cortical cell cultures = assay: In vitro ischemia assay (KCN/2-DG) in cortical cell cultures; type: cell-based, rat
# SHRSP rats = assay: Cortical injury following MCAO in SHRSP rats; type: in vivo, rat; conditions: for Cortical Injury Volume / Cortical Injury Volume (% injury): ± S.E.M., n = 10
# Experimental: Rectal temperature is maintained at 37.0±0.50° C. throughout the surgical procedure using a heating lamp.
# Sprague-Dawley rats [1] = assay: Brain injury following MCAO in Sprague-Dawley rats; type: in vivo, rat; conditions: for mean total brain infarct volume: then 20 mg/kg/hr IV 4 hours
# extracellular glutamate = assay: Stroke-induced rise in brain glutamate levels (microdialysis); type: in vivo, Sprague Dawley rats; conditions: 100 mg/kg IP then 20 mg/kg/hr IV
# Sprague-Dawley rats [2] = assay: Dynorphin-induced spinal cord injury; type: in vivo, rat
# Experimental: Dynorphin-induced spinal cord injury was performed according to Long et al., JPET, Vol. 269, No. 1, pp. 358-366 (1993). In brief, spinal subarachnoid injections were delivered using 30-gauge needles inserted between the L4-L5 vertebrae of male Sprague-Dawley rats (300-350 g). The rats were anesthetized with halothane and dorsal midline incisions were made immediately rostral to the pelvic girdle. By using the vertebral processes as guides, the needle was advanced to pass into the subarachnoid space surrounding the cauda equina. Correct needle placement was verified by CSF flow from the needle after its insertion. […] After injections, the incisions were treated with the topical antibacterial furazolidone and closed with wound clips. Rapid recovery from the halothane anesthesia enabled neurological evaluations to be made within 5 minutes of injections.
# Neurological function was evaluated using a 5-point ordinal scale, with scores being assigned as follows: 4=normal motor function; 3=mild paraparesis, with the ability to support weight and walk with impairment; 2=paraparesis, with the ability to make walking movements without fully supporting weight; 1=severe paraparesis, in which rats could make limited hind limb movement, but not walking movement; and 0=flaccid paralysis, with complete absence of any hind limb movement. Neurological evaluations were made 24 hours after dynorphin A injection.
# Differences in the neurological scores among treatment groups were determined by means of the Mann-Whitney U test or the Kruskal-Wallis test.
# alcohol-preferring rats = assay: Ethanol consumption in alcohol-preferring rats; type: in vivo, rat; conditions: for reduction of ethanol consumption: p<0.05
# Experimental: A within-subject design was used where 2-(phosphonomethyl)pentanedioic acid treatments were tested once per week. Baseline ethanol drinking consisted of the mean of the 3 days prior to testing in which saline injections were given. […] 24 hour water and daily body weights were recorded to assess non-specific drug effects. Results were analyzed using paired t-tests with baseline and test day values serving as the independent variables. Ethanol intake was recorded as amount of solution consumed (mls).
# male Long-Evans rats = assay: Nicotine self-administration in male Long-Evans rats; type: in vivo, rat; conditions: 200 mg/kg
# Experimental: Male Long-Evans rats were trained to self-administer nicotine on a fixed ratio schedule of reinforcement, as described by Corrigall et al., Psychopharmacology, Vol. 104, No. 2, pp. 171-176 (1991) and Corrigall et al., Psychopharmacology, Vol. 107, Nos. 2-3, pp. 285-289 (1992). In brief, male Long-Evans rats were food deprived for a short period of time (24-48 hours) and trained to press a lever in an operant responding chamber on an FR-1 schedule of food reinforcement. Once trained, each rat was surgically prepared with a chronic intravenous catheter implanted into the jugular vein. The rats were allowed 1 week to recover from surgery.
# After 1 week, nicotine self-administration studies were initiated on an FR-1 with a 60 second signaled time-out following each infusion. During time-out, responding on the lever had no scheduled consequence. Nicotine self-administration sessions were 60 minutes in duration. Each nicotine infusion contained 30 μg of nicotine/kg rat and were delivered in a volume of 54 μl over an infusion duration of 0.3 seconds. […] Food intake was monitored during the nicotine self-administration sessions to assess non-specific drug effects.
# LNCaP tumors = assay: In vivo LNCaP tumor model, subcutaneous Compound 3; set-up: species or system ncr nude male mice
# Experimental: Ncr nude male mice, age 5 to 6 weeks, were injected in the right flank with 5×10^6 LNCaP cells in Matrigel™ (0.1 ml total injection volume). […] Controls received 50 mM HEPES s.c. daily. Once tumors were palpable they were measured twice a week.
# Response to treatment was monitored in two ways. First, mean tumor volume for each group was presented as tumor:control ratio (% T/C) and these values were compared at one point in time. Second, tumor volume versus time was monitored.
# [3] = Rattus norvegicus, read-out: % Toxicity
# [4] = 10 mg/kg then 2 mg/kg/hr for 1 hour
# [5] = 100 mg/kg then 20 mg/kg/hr for one hour
# Experimental for LNCaP cells: On the 7th day, the cells are pulsed with 3H-thymidine for 4 hours, harvested and measured for radioactivity. Values represent means +/- SEM of 6 separate cell wells for each treatment. All experiments are performed at least twice.
# LNCaP cells are obtained from Dr. William Nelson at the Johns Hopkins School of Medicine in Baltimore, Md. DU145 cells are obtained from American Type Culture Collection (Rockville, Md.). Cells are grown in RPMI-1640 media supplemented with 5% heat-inactivated fetal calf serum, 2 mM-glutamine, 100 units/ml penicillin, and 100 μg/ml streptomycin (Paragon) in a humidified incubator at 37° C. in a 5% CO2 /95% air atmosphere.
# The cells are suspended at 1×10^3 cells/ml in RPMI-1640 media and seeded into 24-well plates at 500 μl per well. […] 5 ml UltimaGold (Packard) scintillation cocktail is added and radioactivity is quantitated using a Beckman LS6001 scintillation counter.
smiles,measurement,setting,value
"O=C(O)CCC(CP(=O)(O)O)C(=O)O (centres unmarked) [Compound 3, 2-(phosphonomethyl)pentanedioic acid]",toxicological effect (in words),mice,non-toxic to mice
same,ischemic toxicity (in words),cortical cell cultures; 100 pM to 1 μM,toxicity decreased as the concentration of 2-(phosphonomethyl)pentanedioic acid increased
same,activity at 0.0001 µM,cortical cell cultures; [3],66.6 ± 4.38%
same,activity at 0.001 µM,cortical cell cultures; [3],42.3 ± 9.34%
same,activity at 0.01 µM,cortical cell cultures; [3],33.1 ± 9.62%
same,activity at 0.1 µM,cortical cell cultures; [3],30.2 ± 9.43%
same,activity at 1 µM,cortical cell cultures; [3],8.56 ± 8.22%
same,Cortical Protection,SHRSP rats; [4],27 % protection
same,Cortical Injury Volume,SHRSP rats; [4],135.00 ± 32.18 mm^3
same,Cortical Injury Volume (% injury),SHRSP rats; [4],29.14 ± 7.68 % injury
same,Cortical Protection,SHRSP rats; [5],65 % protection
same,Cortical Injury Volume,SHRSP rats; [5],65.23 ± 32.18 mm^3
same,Cortical Injury Volume (% injury),SHRSP rats; [5],13.98 ± 6.64 % injury
same,mean total brain infarct volume,"Sprague-Dawley rats [1]; 100 mg/kg IP 20 minute pre-treatment, p=0.003 vs. vehicle (293±26)",122±26 mm^3
same,mean total brain infarct volume,"Sprague-Dawley rats [1]; 100 mg/kg IP 30 minute post-treatment, p=0.2 vs. vehicle (293±26)",208±40 mm^3
same,mean total brain infarct volume,"Sprague-Dawley rats [1]; 100 mg/kg IP 60 minute post-treatment, p=0.015 vs. vehicle (293±26)",125±57 mm^3
same,mean total brain infarct volume,"Sprague-Dawley rats [1]; 100 mg/kg IP 120 minute post-treatment, p=0.005 vs. vehicle (293±26)",133±35 mm^3
same,neuroprotection in rat MCAO model (in words),Sprague-Dawley rats [1]; up to 2 hours post-occlusion,neuroprotective in rat MCAO model of stroke when administered up to 2 hours post-occlusion
same,"stroke-induced glutamate changes, parietal cortex (in words)",extracellular glutamate; p<0.01,completely prevented concurrent glutamate changes in the parietal cortex
same,"stroke-induced extracellular glutamate increase, striatum (in words)",extracellular glutamate; p<0.05,significantly attenuated stroke-induced extracellular glutamate increases in the striatum
same,"glutamate, frontal cortex (in words)",extracellular glutamate; vs vehicle,no subsequent difference between the vehicle and 2-(phosphonomethyl)pentanedioic acid treated groups
same,motor scores (in words),"Sprague-Dawley rats [2]; 4 μmoles with dynorphin A, 24 hours, p<0.05 vs vehicle",significant improvement in motor scores
same,rats ambulatory,"Sprague-Dawley rats [2]; 24 hours post-injection, 15 rats, vehicle 14%, p<0.05",73%
same,protection against dynorphin-induced spinal cord injury (in words),"Sprague-Dawley rats [2]; rat, in vivo",provides effective protection against dynorphin-induced spinal cord injury
same,reduction of ethanol consumption,"alcohol-preferring rats; 50 mg/kg IP, 1 hour access",approximately 25%
same,ethanol intake,"alcohol-preferring rats; 50 mg/kg, saline baseline 8.1±0.6",6.2±0.9 mls
same,reduction of ethanol consumption,"alcohol-preferring rats; 100 mg/kg IP, 1 hour access",approximately 25%
same,ethanol intake,"alcohol-preferring rats; 100 mg/kg, saline baseline 7.8±0.8",5.8±0.7 mls
same,effect on ethanol consumption (in words),"alcohol-preferring rats; 200 mg/kg IP, 1 hour access",no effect
same,ethanol intake,"alcohol-preferring rats; 200 mg/kg, saline baseline 8.9±0.7",8±0.5 mls
same,body weights and 24 hour water intakes (in words),"alcohol-preferring rats; 50, 100, 200 mg/kg",not altered at any of the 3 doses
same,cumulative food intake (in words),male Long-Evans rats; 1 hour,decreased
same,nicotine self-administration,"male Long-Evans rats; 1 hour access period, reduced from 23",5 infusions
same,effect on tumor growth (in words),LNCaP tumors; 1 mg/kg s.c.,no effect on tumor growth
same,effect on tumor growth (in words),LNCaP tumors; 3 mg/kg s.c.,no effect on tumor growth
same,"tumor growth, % of controls","LNCaP tumors; 10 mg/kg s.c., day 86, p=0.006",24 % of controls
same,effect on tumor growth (in words),LNCaP tumors; 30 mg/kg s.c.,no effect on tumor growth
same,3H-Thymidine Incorporation,LNCaP cells; 10 pM,3078 ± 1006 dpm/well
same,3H-Thymidine Incorporation,LNCaP cells; 100 pM,2062 ± 595 dpm/well
same,3H-Thymidine Incorporation,LNCaP cells; 1 nM,1001 ± 52 dpm/well
same,3H-Thymidine Incorporation,LNCaP cells; 10 nM,664 ± 366 dpm/well
